Key:
[1] = Stability of ORZY-04 on drying; assay type: physicochemical; conditions: 168 h of drying at 45° C. in vacuum
Experimental: A citric acid solution was prepared by charging citric acid (15.01 g, […]) and MeOH (100 mL) in a separate container and stirring for 5 min. at 20° C. The citric acid solution was then charged to the container containing the reaction solution, and the mixture was cooled to 0° C. and stirred for at least 12 h at 0° C. ORZY-04 was then isolated by filtration of the obtained suspension, and washed with MeOH (40 mL). Finally, the solids were dried at 45° C. in vacuum.

[2] = assay type: in vivo, human
Description: The stability permits that the permeability of arimoclomol is high based on urinary recovery in human mass balance trial.

[3] = design: species or system human; conditions: in vivo
Experimental: The PK parameters of arimoclomol after single dose and multiple dose administrations of arimoclomol were studied. After single- and multiple-dose oral administration of arimoclomol, the overall median tmax was 0.25 to 3.00 hours.

[4] = design: species or system dogs; conditions: dog, in vivo
[5] = Particle size distribution of ORZY-05 by Malvern Mastersizer 3000; assay type: physicochemical; conditions: ORZY-05 particles, Malvern Mastersizer 3000, volume distribution
Experimental: Further batches of ORZY-05 were prepared essentially as in Example 7 and the ORZY-05 particles were examined using Malvern Mastersizer 3000 as described in Example 11.
Malvern Mastersizer 3000: Particle size distribution of Arimoclomol citrate (ORZY-05) was determined by light scattering using a Malvern Mastersizer 3000 particle size analyzer (Malvern Instruments Ltd, Grovewood Road, Malvern, Worcestershire WR14 1XZ, United Kingdom) with a Hydro MV wet-dispersion unit attached. 2-Propanol with 1.8 g/L SPAN-85 additive was used as a dispersion medium (“dispersant”) and added to the dispersion unit. Prior to sample addition, the background counts of the system were determined by circulating the dispersant through the measurement cell under measurement conditions (2500 rpm stirrer speed). Samples for analysis were prepared by adding a suitable amount of Arimoclomol citrate to a 10 mL vial and pre-dispersing it with dispersant under light agitation for a few seconds. The pre-dispersed sample was then pipetted into the Hydro MV dispersion unit filled with dispersant to meet a laser obscuration range of 10-15%. A single-use PE pipette was used for this and representative sampling from the 10 mL vial was ensured by continuous agitation. […] Volume distributions were obtained and the D10, D50 and D90 were calculated from these distributions and reported. For each sample, a single sample preparation was analyzed using red light measurement only. Upon measurement completion, the sample cell was emptied and cleaned.

[6] = Particle size distribution of ORZY-05 by static automated imaging (Morphologi 4); assay type: physicochemical; conditions: ORZY-05 particles
Experimental: The materials and methods were essentially as in Example 7. In the present example, the cooling time of the cooling step of from 30° C. to 0° C. subsequent to addition of acetone was varied and its influence on the particle size of ORZY-05 was determined. The cooling time is a measure of how long it takes to reach 0° C. from 30° C. The particle size distribution (PSD) data shown in Table 3 were acquired using static automated imaging (Morphology 4).
Morphologi 4: The Particle size distribution of Arimoclomol citrate (ORZY-05) was also measured using a Malvern Morphologi 4 equipment.
Wet measurement was used for the needle shaped particles. […] Measurements were made using a thin path wet cell (75*75 mm). Samples were prepared by adding 20 mL of dispersant to 10 mg of API, followed by 30 s of stirring and 2 min of sonication in order to break the agglomerates. A microscope magnifier of X10 or X20 was used, and segmentation sharp edge and/or thresholding was used to improve the focus microscope focus.

SMILES	D10 [5]	D50 [5]	D90 [5]	Number CE Diameter D10 [6]	Number CE Diameter D50 [6]	Number CE Diameter D90 [6]	Number CE Diameter Mean [6]	Number Length D10 [6]	Number Length D50 [6]	Number Length D90 [6]	Volume CE Diameter D10 [6]	Volume CE Diameter D50 [6]	Volume CE Diameter D90 [6]	Volume CE diameter D[3,2] [6]	Volume CE diameter D[4,3] [6]	other results
[O-][n+]1cccc(/C(Cl)=N/OC[C@H](O)CN2CCCCC2)c1 [ORZY-04]																stability on drying [1]: stable
[O-][n+]1cccc(C(Cl)=NOC[C@H](O)CN2CCCCC2)c1 [arimoclomol, N-{[(2R)-2-hydroxy-3-piperidin-1-ylpropyl]oxy}pyridine-3-carboximidoyl chloride 1-oxide]																drug-related material recovered in faeces ([2]; in vivo): 12%; drug-related material recovered in the urine ([2]; in vivo): 77.5%; permeability ([2]; not told): high; PK parameters (Cmax and AUC0-8) versus dose [3]: increase in proportion to the dose; absorption ([3]; po): rapid and extensive; absolute bioavailability [4]: 75%
O=C(O)CC(O)(CC(=O)O)C(=O)O.[O-][n+]1cccc(/C(Cl)=N/OC[C@H](O)CN2CCCCC2)c1 [compound 1001, arimoclomol citrate]	7.00 μm	21.00 μm	63.00 μm	2.41 μm	5.28 μm	17.81 μm	8.16 μm	2.90 μm	7.03 μm	26.69 μm	13.10 μm	25.95 μm	47.14 μm	21.77 μm	29.46 μm	
O=C(O)CC(O)(CC(=O)O)C(=O)O.[O-][n+]1cccc(/C(Cl)=N/OC[C@H](O)CN2CCCCC2)c1 [compound 1002, arimoclomol citrate]	14.00 μm	53.00 μm	118.00 μm	2.45 μm	5.61 μm	15.01 μm	7.71 μm	3.46 μm	7.37 μm	22.17 μm	12.39 μm	32.12 μm	73.60 μm	24.24 μm	39.38 μm	
O=C(O)CC(O)(CC(=O)O)C(=O)O.[O-][n+]1cccc(/C(Cl)=N/OC[C@H](O)CN2CCCCC2)c1 [compound 1003, arimoclomol citrate]	6.00 μm	17.00 μm	47.00 μm	0.89 μm	3.34 μm	14.14 μm	5.79 μm	4.20 μm	9.50 μm	25.49 μm	10.66 μm	20.58 μm	34.54 μm	17.52 μm	22.10 μm	
O=C(O)CC(O)(CC(=O)O)C(=O)O.[O-][n+]1cccc(/C(Cl)=N/OC[C@H](O)CN2CCCCC2)c1 [compound 1004, arimoclomol citrate]	8.00 μm	22.00 μm	68.00 μm	1.05 μm	2.86 μm	13.33 μm	5.31 μm	2.82 μm	6.18 μm	24.80 μm	12.62 μm	25.00 μm	43.46 μm	20.53 μm	27.06 μm	

From US20230416224A1, “PROCESSES FOR PREPARING ARIMOCLOMOL CITRATE AND INTERMEDIATES THEREOF” (ZEVRA DENMARK A/S, priority 2020, published 2023)
